How the values were obtained:
[1] = tested on: late watergrass; test: Test Example 1: herbicidal activity, application before weed generation under submerged conditions (Table 16, symbol A); format: in vivo, late watergrass (Echinochloa oryzicola); conditions: amount of applied herbicide 320 g/ha
Outline: (§1)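 Alluvial soil was flooded to 4 cm depth, weed seeds were sown mixed and 2.5-leaf rice seedlings were transplanted. On sowing day, the compound's emulsion, diluted in water to a set dose, was applied to the water surface. Plants grew at 25–30 °C and were scored 0–5 after three weeks.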

[2] = tested on: Japanese bulrush; test: Test Example 1: herbicidal activity, application before weed generation under submerged conditions (Table 16, symbol B); format: in vivo, Japanese bulrush (Schoenoplectus juncoides); conditions: amount of applied herbicide 320 g/ha
Outline: as §1

[3] = tested on: oval-leafed pondweed; test: Test Example 1: herbicidal activity, application before weed generation under submerged conditions (Table 16, symbol C); format: in vivo, oval-leafed pondweed (Monochoria vaginalis); conditions: amount of applied herbicide 320 g/ha
Outline: as §1

[4] = tested on: barnyard grass; test: Test Example 3: herbicidal effect by foliage application, Wagner pot (Table 18, symbol H); format: in vivo, barnyard grass (Echinochloa crus-galli); conditions: 320 g/ha
Outline: (§2)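 Plants were sown in alluvial soil held under 0.1–0.5 cm standing water and grown 14 days in a greenhouse at 25–30 °C. An emulsifiable formulation, water-diluted to the set dose, was then sprayed onto the foliage, and effects were scored three weeks later using previously defined criteria.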

[5] = tested on: Chinese sprangletop; test: Test Example 3: herbicidal effect by foliage application, Wagner pot (Table 18, symbol D); format: in vivo, chinese sprangletop (Leptochloa chinensis); conditions: 320 g/ha
Outline: as §2

[6] = tested on: rice flat sedge; test: Test Example 3: herbicidal effect by foliage application, Wagner pot (Table 18, symbol E); format: in vivo, rice flat sedge (Cyperus iria); conditions: 320 g/ha
Outline: as §2

[7] = tested on: southern crabgrass; test: Test Example 4: herbicidal effect by soil treatment (Table 19, symbol F); format: in vivo, southern crabgrass (Digitaria ciliaris); conditions: amount of applied herbicide 320 g/ha
Outline: (§3)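 Applied as a water-diluted emulsion, the compound was sprayed onto soil covering newly sown seeds. Evaluation came three weeks after application, in a greenhouse held at 25° C. to 30° C.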

[8] = tested on: green foxtail; test: Test Example 4: herbicidal effect by soil treatment (Table 19, symbol G); format: in vivo, green foxtail (Setaria viridis); conditions: amount of applied herbicide 320 g/ha
Outline: as §3

[9] = tested on: barnyard grass; test: Test Example 4: herbicidal effect by soil treatment (Table 19, symbol H); format: in vivo, barnyard grass (Echinochloa crus-galli); conditions: amount of applied herbicide 320 g/ha
Outline: as §3

[10] = tested on: wild oat; test: Test Example 4: herbicidal effect by soil treatment (Table 19, symbol I); format: in vivo, wild oat (Avena fatua); conditions: amount of applied herbicide 320 g/ha
Outline: as §3

[11] = tested on: blackgrass; test: Test Example 4: herbicidal effect by soil treatment (Table 19, symbol J); format: in vivo, blackgrass (Alopecurus myosuroides); conditions: amount of applied herbicide 320 g/ha
Outline: as §3

[12] = tested on: Italian ryegrass; test: Test Example 4: herbicidal effect by soil treatment (Table 19, symbol K); format: in vivo, Italian ryegrass (Lolium multiflorum); conditions: amount of applied herbicide 320 g/ha
Outline: as §3

[13] = tested on: windgrass; test: Test Example 4: herbicidal effect by soil treatment (Table 19, symbol L); format: in vivo, windgrass (Apera spica-venti); conditions: amount of applied herbicide 320 g/ha
Outline: as §3

[14] = tested on: velvetleaf; test: Test Example 4: herbicidal effect by soil treatment (Table 19, symbol M); format: in vivo, velvetleaf (Abutilon theophrasti); conditions: amount of applied herbicide 320 g/ha
Outline: as §3

[15] = tested on: redroot pigweed; test: Test Example 4: herbicidal effect by soil treatment (Table 19, symbol N); format: in vivo, redroot pigweed (Amaranthus retroflexus); conditions: amount of applied herbicide 320 g/ha
Outline: as §3

[16] = tested on: lambsquarters; test: Test Example 4: herbicidal effect by soil treatment (Table 19, symbol O); format: in vivo, lambsquarters (Chenopodium album); conditions: amount of applied herbicide 320 g/ha
Outline: as §3

[17] = tested on: chickweed; test: Test Example 4: herbicidal effect by soil treatment (Table 19, symbol P); format: in vivo, common chickweed (Stellaria media); conditions: amount of applied herbicide 320 g/ha
Outline: as §3

[18] = tested on: persian speedwell; test: Test Example 4: herbicidal effect by soil treatment (Table 19, symbol R); format: in vivo, Persian speedwell (Veronica persica); conditions: amount of applied herbicide 320 g/ha
Outline: as §3

[19] = tested on: southern crabgrass; test: Test Example 5: herbicidal effect by foliage application, plastic box (Table 20, symbol F); format: in vivo, southern crabgrass (Digitaria ciliaris); conditions: amount of applied herbicide 320 g/ha; foliage application after 14-day growth; evaluated three weeks after application
Outline: (§4)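 Sow seeds spot-wise in sterilized diluvial soil; cover with ~1.5 cm soil. Grow 14 days in greenhouse, 25° C. to 30° C. Spray foliage with emulsion diluted to predetermined amount. Rate effect after 3 weeks.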

[20] = tested on: green foxtail; test: Test Example 5: herbicidal effect by foliage application, plastic box (Table 20, symbol G); format: in vivo, green foxtail (Setaria viridis); conditions: amount of applied herbicide 320 g/ha; foliage application after 14-day growth; evaluated three weeks after application
Outline: as §4

[21] = tested on: barnyard grass; test: Test Example 5: herbicidal effect by foliage application, plastic box (Table 20, symbol H); format: in vivo, barnyard grass (Echinochloa crus-galli); conditions: amount of applied herbicide 320 g/ha; foliage application after 14-day growth; evaluated three weeks after application
Outline: as §4

[22] = tested on: wild oat; test: Test Example 5: herbicidal effect by foliage application, plastic box (Table 20, symbol I); format: in vivo, wild oat (Avena fatua); conditions: amount of applied herbicide 320 g/ha; foliage application after 14-day growth; evaluated three weeks after application
Outline: as §4

[23] = tested on: blackgrass; test: Test Example 5: herbicidal effect by foliage application, plastic box (Table 20, symbol J); format: in vivo, blackgrass (Alopecurus myosuroides); conditions: amount of applied herbicide 320 g/ha; foliage application after 14-day growth; evaluated three weeks after application
Outline: as §4

[24] = tested on: Italian ryegrass; test: Test Example 5: herbicidal effect by foliage application, plastic box (Table 20, symbol K); format: in vivo, Italian ryegrass (Lolium multiflorum); conditions: amount of applied herbicide 320 g/ha; foliage application after 14-day growth; evaluated three weeks after application
Outline: as §4

[25] = tested on: windgrass; test: Test Example 5: herbicidal effect by foliage application, plastic box (Table 20, symbol L); format: in vivo, windgrass (Apera spica-venti); conditions: amount of applied herbicide 320 g/ha; foliage application after 14-day growth; evaluated three weeks after application
Outline: as §4

[26] = tested on: velvetleaf; test: Test Example 5: herbicidal effect by foliage application, plastic box (Table 20, symbol M); format: in vivo, velvetleaf (Abutilon theophrasti); conditions: amount of applied herbicide 320 g/ha; foliage application after 14-day growth; evaluated three weeks after application
Outline: as §4

[27] = tested on: redroot pigweed; test: Test Example 5: herbicidal effect by foliage application, plastic box (Table 20, symbol N); format: in vivo, redroot pigweed (Amaranthus retroflexus); conditions: amount of applied herbicide 320 g/ha; foliage application after 14-day growth; evaluated three weeks after application
Outline: as §4

[28] = tested on: lambsquarters; test: Test Example 5: herbicidal effect by foliage application, plastic box (Table 20, symbol O); format: in vivo, lambsquarters (Chenopodium album); conditions: amount of applied herbicide 320 g/ha; foliage application after 14-day growth; evaluated three weeks after application
Outline: as §4

[29] = tested on: chickweed; test: Test Example 5: herbicidal effect by foliage application, plastic box (Table 20, symbol P); format: in vivo, common chickweed (Stellaria media); conditions: amount of applied herbicide 320 g/ha; foliage application after 14-day growth; evaluated three weeks after application
Outline: as §4

[30] = tested on: persian speedwell; test: Test Example 5: herbicidal effect by foliage application, plastic box (Table 20, symbol R); format: in vivo, Persian speedwell (Veronica persica); conditions: amount of applied herbicide 320 g/ha; foliage application after 14-day growth; evaluated three weeks after application
Outline: as §4

Row | Structure (SMILES) | Herbicidal effect, A: late watergrass [1] | Herbicidal effect, B: Japanese bulrush [2] | Herbicidal effect, C: oval-leafed pondweed [3] | herbicidal effect on barnyard grass (H) [4] | herbicidal effect on Chinese sprangletop (D) [5] | herbicidal effect on rice flat sedge (E) [6] | Herbicidal effect by soil treatment, F: southern crabgrass [7] | Herbicidal effect by soil treatment, G: green foxtail [8] | Herbicidal effect by soil treatment, H: barnyard grass [9] | Herbicidal effect by soil treatment, I: wild oat [10] | Herbicidal effect by soil treatment, J: blackgrass [11] | Herbicidal effect by soil treatment, K: Italian ryegrass [12] | Herbicidal effect by soil treatment, L: windgrass [13] | Herbicidal effect by soil treatment, M: velvetleaf [14] | Herbicidal effect by soil treatment, N: redroot pigweed [15] | Herbicidal effect by soil treatment, O: lambsquarters [16] | Herbicidal effect by soil treatment, P: chickweed [17] | Herbicidal effect by soil treatment, R: persian speedwell [18] | Herbicidal effect by foliage application, F: southern crabgrass [19] | Herbicidal effect by foliage application, G: green foxtail [20] | further results
1 | CCCC(=O)Oc1c(C)nn(C)c(=O)c1-c1c(-c2ccccc2OC(F)(F)F)sc2c(Cl)cccc12 [4-077] | 3 (Herbicidal rate of 40% or more and less than 70%) | 0 (Herbicidal rate of 5% or less (almost no effect)) | 0 (Herbicidal rate of 5% or less (almost no effect)) | 5 (Herbicidal rate of 90% or more (almost completely withered)) | 4 (Herbicidal rate of 70% or more and less than 90%) | 5 (Herbicidal rate of 90% or more (almost completely withered)) | 0 (Herbicidal rate of 5% or less (almost no effect)) | 0 (Herbicidal rate of 5% or less (almost no effect)) | 0 (Herbicidal rate of 5% or less (almost no effect)) | 0 (Herbicidal rate of 5% or less (almost no effect)) | 0 (Herbicidal rate of 5% or less (almost no effect)) | 0 (Herbicidal rate of 5% or less (almost no effect)) | 0 (Herbicidal rate of 5% or less (almost no effect)) | 0 (Herbicidal rate of 5% or less (almost no effect)) | 3 (Herbicidal rate of 40% or more and less than 70%) | 0 (Herbicidal rate of 5% or less (almost no effect)) | 0 (Herbicidal rate of 5% or less (almost no effect)) | 3 (Herbicidal rate of 40% or more and less than 70%) | 0 (Herbicidal rate of 5% or less (almost no effect)) | 3 (Herbicidal rate of 40% or more and less than 70%) | Herbicidal effect by foliage application, H: barnyard grass [21]: 3 (Herbicidal rate of 40% or more and less than 70%); Herbicidal effect by foliage application, I: wild oat [22]: 0 (Herbicidal rate of 5% or less (almost no effect)); Herbicidal effect by foliage application, J: blackgrass [23]: 0 (Herbicidal rate of 5% or less (almost no effect)); Herbicidal effect by foliage application, K: Italian ryegrass [24]: 3 (Herbicidal rate of 40% or more and less than 70%); Herbicidal effect by foliage application, L: windgrass [25]: 0 (Herbicidal rate of 5% or less (almost no effect)); Herbicidal effect by foliage application, M: velvetleaf [26]: 5 (Herbicidal rate of 90% or more (almost completely withered)); Herbicidal effect by foliage application, N: redroot pigweed [27]: 5 (Herbicidal rate of 90% or more (almost completely withered)); Herbicidal effect by foliage application, O: lambsquarters [28]: 4 (Herbicidal rate of 70% or more and less than 90%); Herbicidal effect by foliage application, P: chickweed [29]: 5 (Herbicidal rate of 90% or more (almost completely withered)); Herbicidal effect by foliage application, R: persian speedwell [30]: 5 (Herbicidal rate of 90% or more (almost completely withered))
2 | CCOc1ccccc1-c1sc2c(C)cccc2c1-c1c(O)c(C)nn(C)c1=O [4-112] | 3 (Herbicidal rate of 40% or more and less than 70%) | 3 (Herbicidal rate of 40% or more and less than 70%) | 0 (Herbicidal rate of 5% or less (almost no effect)) | 5 (Herbicidal rate of 90% or more (almost completely withered)) | 4 (Herbicidal rate of 70% or more and less than 90%) | 5 (Herbicidal rate of 90% or more (almost completely withered)) | 3 (Herbicidal rate of 40% or more and less than 70%) | 4 (Herbicidal rate of 70% or more and less than 90%) | 3 (Herbicidal rate of 40% or more and less than 70%) | 0 (Herbicidal rate of 5% or less (almost no effect)) | 2 (Herbicidal rate of 20% or more and less than 40%) | 3 (Herbicidal rate of 40% or more and less than 70%) | 4 (Herbicidal rate of 70% or more and less than 90%) | 3 (Herbicidal rate of 40% or more and less than 70%) | 4 (Herbicidal rate of 70% or more and less than 90%) | 3 (Herbicidal rate of 40% or more and less than 70%) | 3 (Herbicidal rate of 40% or more and less than 70%) | 5 (Herbicidal rate of 90% or more (almost completely withered)) | 4 (Herbicidal rate of 70% or more and less than 90%) | 5 (Herbicidal rate of 90% or more (almost completely withered)) | Herbicidal effect by foliage application, H: barnyard grass [21]: 4 (Herbicidal rate of 70% or more and less than 90%); Herbicidal effect by foliage application, I: wild oat [22]: 4 (Herbicidal rate of 70% or more and less than 90%); Herbicidal effect by foliage application, J: blackgrass [23]: 5 (Herbicidal rate of 90% or more (almost completely withered)); Herbicidal effect by foliage application, K: Italian ryegrass [24]: 4 (Herbicidal rate of 70% or more and less than 90%); Herbicidal effect by foliage application, L: windgrass [25]: 5 (Herbicidal rate of 90% or more (almost completely withered)); Herbicidal effect by foliage application, M: velvetleaf [26]: 5 (Herbicidal rate of 90% or more (almost completely withered)); Herbicidal effect by foliage application, N: redroot pigweed [27]: 5 (Herbicidal rate of 90% or more (almost completely withered)); Herbicidal effect by foliage application, O: lambsquarters [28]: 5 (Herbicidal rate of 90% or more (almost completely withered)); Herbicidal effect by foliage application, P: chickweed [29]: 5 (Herbicidal rate of 90% or more (almost completely withered)); Herbicidal effect by foliage application, R: persian speedwell [30]: 5 (Herbicidal rate of 90% or more (almost completely withered))
